# Results reported in patent US6989143B1, “Depletion method of blood plasma ascorbate” (priority 2000, dated 2006).
# Legend:
# [1] = Plasma ascorbate level in mice given sodium ascorbate or L-gulono-γ-lactone (HPLC-ECD); conditions: 5 mmole/kg, intraperitoneal
# Method: Time-dependent changes of plasma ascorbate level in mice given sodium ascorbate (-o-) and L-gulono-γ-lactone (-•-). Drugs were dissolved in distilled water and administered by intraperitoneal injections, both at 5 mmole/kg. Blood was taken from each animal time-sequentially for the assay of plasma ascorbate with HPLC-ECD, as described in MATERIALS AND METHODS. Zero time control animals were given 0.2 ml of normal saline. Data represent Mean±SD (n=3−5).
# Specific pathogen-free female BALB/c mice (body weight, ca. 25 g) were used in the present study. Animals were obtained from Dae-Han Laboratory Animal Center (Daejeon, Korea) and cared for according to the ILAR guidelines in the animal care facility of Samsung Biomedical Research Center (Seoul, Korea). They were fed a diet from Jell Laboratory Chow (Seoul, Korea). Feed and water were offered ad libitum.
# The animal was anesthetized with diethyl ether vapour and blood was obtained by choroidal venous plexus. About one ml of blood was collected into a microcentrifuge tube that contained 50 μl of 130 mM sodium citrate as an anticoagulant. […] The ascorbate content in the supernatant was measured directly by HPLC method. An aliquot of the sample was treated with 100 mM dithiothreitol at neutral pH to reduce dehydroascorbate to ascorbate, and then total ascorbate content was measured. […]
# [2] = test system: pre-leukemia, or myelodysplastic syndromes(MDS); conditions: in vitro; cited from earlier work
# leukemic cells = conditions: in vitro, small number of patients; cited from earlier work
Structure (SMILES),return of accumulated plasma ascorbate to normal levels [1],share of MDS showing growth enhancement with LAA [2],share of MDS showing growth suppression with LAA [2],fraction of patients whose leukemic cell growth was modulated by LAA (leukemic cells)
"O=C1O[C@H]([C@@H](O)CO)C([O-])=C1O.[Na+] [ascorbate, Sodium ascorbate]",rapidly diminished to normal levels within a few hours,,,
"O=C1O[C@H]([C@@H](O)CO)C(O)=C1O [LAA, L-ascorbic acid]",,30%,16%,approximately ½
